Results as given in US6265445A, “Antiarrhythmic compounds” (priority 1997, dated 2001).
Where a name gives a salt, the structure may show the parent alone. Read-outs that look alike come from different tables or passages of the source.

Columns and labels:
[1] = tested on: right ventricular papillary muscle of dogs; experiment: Intracellular microelectrode technique: action potential parameters, ventricular papillary muscle; parameters: species or system mongrel dogs; settings: for Trecovery (recovery time constant of Vmax): Gy: kinetics of rapid restoration; for effect on duration of the action potential (in words) / effect on Vmax (in words): concentrations of Table 2; for effect on Vmax (in words): rapid recovery kinetics
Procedure: The method used is essentially in agreement with the method of Papp et al. [J. Cardiovascular Pharmacol. Ther. 1, 287-296 (1996)].
Right ventricular papillary muscle and Purkinje's fibres were prepared from the hearts of mongrel dogs (weighing 5 to 10 kg each). The preparations were placed into an organ bath (37° C.) containing modified Tyrode's nutrient medium. The preparations were excited by a basal frequency of 1 Hz. During the experiments, the frequency of stimulation was varied under broad limits by a computer-guided stimulator. The intracellular action potentials were registered by using glass capillary microelectrodes filled with 3 N potassium chloride solution (standard intracellular microelectrode techniques). The resting potential (RP), the amplitude of the action potential (APA) as well as the duration of the action potential (APD) were measured by using an IBM 386 compatible computer by means of an own-developed software. The compounds under test were directly added into the organ bath after dilution of the stock solutions according to the final concentrations desired. The effects of the compounds were observed after an incubation time of 30 to 40 minutes.

[2] = tested on: isolated right ventricular trabecule of dog heart; experiment: Extracellular electrophysiological measurements: impulse conduction time and effective refractory period; parameters: species or system mongrel dogs; settings: for activation at 2 µM / activation at 10 µM: Canis lupus familiaris; for effect on effective refractory period (in words) / effect on impulse conduction (in words): concentrations of Table 1
Procedure: Right ventricular trabecules were prepared from the heart of mongrel dogs (weighing 5 to 10 kg each). The surviving heart pieces were placed into an organ bath (37° C.) containing modified Tyrode's nutrient medium and excited by point stimulation with a basal frequency of 1 Hz. Extracellular bipolar platinum electrodes were placed on the surface of the preparations, by means of which the propagation of the superficial potentials were registered; thus, the determination of the time of impulse conduction or the rate of impulse conduction, respectively, and the effective refractory period (ERP) became possible. During our experiments,the frequency of stimulation was temporarily varied from 0.5 Hz up to 3 Hz. The tested compounds were directly added to the organ bath after dilution of the stock solution according to the desired final concentration.

[3] = 1 Hz, read-out: Prolongation (%) of ERP
[4] = 1 Hz, read-out: Prolongation (%) of impulse conduction time
[5] = 3 Hz, read-out: Prolongation (%) of ERP
[6] = 3 Hz, read-out: Prolongation (%) of impulse conduction time

Row | Structure (SMILES) | effect on effective refractory period (in words) [2] | effect on impulse conduction (in words) [2] | effect on duration of the action potential (in words) [1] | effect on Vmax (in words) [1] | APA (amplitude of the action potential) ([1]; 5 μM) | APD50 (time of 50% repolarization) ([1]; 5 μM) | APD90 (time of 90% repolarization) ([1]; 5 μM) | RP (resting potential) ([1]; 5 μM) | Recovery Ampl ([1]; 5 μM) | Recovery Ampl/Plateau ([1]; 5 μM) | Recovery Plateau ([1]; 5 μM) | Vmax (maximum rate of depolarization) ([1]; 5 μM) | Trecovery (recovery time constant of Vmax) ([1]; 5 μM) | activation at 10 µM [2, 3] | activation at 10 µM [2, 4] | activation at 10 µM [2, 5] | activation at 10 µM [2, 6] | also measured
1 | CN(CCOc1ccc(NS(C)(=O)=O)cc1)CCc1ccc(NS(C)(=O)=O)cc1 [Dofetilide, N-[4-[2-[N-methyl-N-[2-(4-methanesulfonamidophenoxy)ethyl]-amino]ethyl]phenyl]methanesulfonamide, reference compound] |  |  |  |  |  |  |  |  |  |  |  |  |  |  |  |  |  | APA (amplitude of the action potential) ([1]; 1 μM): 96 mV; APD50 (time of 50% repolarization) ([1]; 1 μM): 218 ms; APD90 (time of 90% repolarization) ([1]; 1 μM): 252 ms; RP (resting potential) ([1]; 1 μM): -76 mV; Vmax (maximum rate of depolarization) ([1]; 1 μM): 212 V/s
2 | Cc1cccc(C)c1OCC(C)N(C)CCc1ccc(N)cc1 (centres unmarked) [Example 9, N-[2-(2,6-Dimethylphenoxy)-1-methylethyl]-N-methyl-2-(4-aminophenyl)ethylamine] | simultaneous prolongation of the effective refractory period (ERP) | significantly prolonged the time of impulse conduction in a frequency-dependent manner | simultaneous prolongation of duration of the action potential (APD) | mexiletine-like inhibition of Vmax |  |  |  |  |  |  |  |  |  |  |  |  |  | activation at 2 µM [2, 3]: 31.8%; activation at 2 µM [2, 4]: 38%; activation at 2 µM [2, 5]: 39.4%; activation at 2 µM [2, 6]: 51.3%; APA (amplitude of the action potential) ([1]; 1 μM): 110 mV; APD50 (time of 50% repolarization) ([1]; 1 μM): 285 ms; APD90 (time of 90% repolarization) ([1]; 1 μM): 342 ms; RP (resting potential) ([1]; 1 μM): -91 mV; Recovery Ampl ([1]; 1 μM): 132.4 V/s; Recovery Ampl/Plateau ([1]; 1 μM): 0.61; Recovery Plateau ([1]; 1 μM): 216.5 V/s; Vmax (maximum rate of depolarization) ([1]; 1 μM): 200 V/s; Trecovery (recovery time constant of Vmax) ([1]; 1 μM): 307.4 ms
3 | Cc1ccccc1OCCN(C)CCc1ccc(NS(C)(=O)=O)cc1.Cl [Example 14, N-[4-[2-[N-Methyl-N-[2-(2-methylphenoxy)ethyl]amino]ethyl]-phenyl]methanesulfonamide hydrochloride] |  |  | simultaneous prolongation of duration of the action potential (APD) | mexiletine-like inhibition of Vmax | 114 mV | 214 ms | 257 ms | -90 mV | 58.7 V/s | 0.25 | 231.8 V/s | 232 V/s | 111.4 ms |  |  |  |  | 
4 | Cc1cccc(C)c1OC[C@H](C)N(C)CCc1ccc(NS(C)(=O)=O)cc1 [Example 16, (S)-N-[4-[2-[N-Methyl-N-[2-(2,6-dimethylphenoxy)-1-methylethyl]amino]ethyl]pbenyl]methanesulfonamide hydrochloride] | simultaneous prolongation of the effective refractory period (ERP) | significantly prolonged the time of impulse conduction in a frequency-dependent manner | simultaneous prolongation of duration of the action potential (APD) | mexiletine-like inhibition of Vmax | 105 mV | 195 ms | 244 ms | -86 mV | 75.8 V/s | 0.39 | 196.4 V/s | 199 V/s | 249.5 ms | 10.7% | 26.9% | 14.3% | 39.7% | difference between the effects of Example 15 and its enantiomers (in words) ([1]; 5 μM): No essential difference could be observed
5 | Cc1cccc(C)c1OC[C@@H](C)N(C)CCc1ccc(NS(C)(=O)=O)cc1.Cl [Example 17, (R)-N-[4-[2-[N-Methyl-N-[2-(2,6-dimethylphenoxy)-1-methylethyl]amino]ethyl]phenyl]methanesulfonamide hydrochloride] | simultaneous prolongation of the effective refractory period (ERP) | significantly prolonged the time of impulse conduction in a frequency-dependent manner | simultaneous prolongation of duration of the action potential (APD) | mexiletine-like inhibition of Vmax | 106 mV | 203 ms | 249 ms | -87 mV | 85.2 V/s | 0.52 | 173.7 V/s | 169 V/s | 390.4 ms | 12.1% | 32.5% | 17.1% | 35.1% | difference between the effects of Example 15 and its enantiomers (in words) ([1]; 5 μM): No essential difference could be observed
6 | Cc1ccccc1OCC(C)N(C)CCc1ccc(NS(C)(=O)=O)cc1 (centres unmarked) [Example 18, N-[4-[2-[N-Methyl-N-[2-(2-methylphenoxy)-1-methylethyl]-amino]ethyl]phenyl]methanesulfonamide hydrochloride] |  |  |  |  |  |  |  |  |  |  |  |  |  | 9.9% | 18.5% | 14% | 21.7% | 
7 | Cc1ccc(C)c(OCC(C)N(C)CCc2ccc(NS(C)(=O)=O)cc2)c1 (centres unmarked) [Example 20, N-[4-[2-[N-Metbyl-N-[2-(2,5-dimethylphenoxy)-1-methylethyl]amino]ethyl]phenyl]methanesulfonamide hydrochloride] |  |  |  |  |  |  |  |  |  |  |  |  |  | 8.4% | 20.3% | 12.6% | 24.5% | 
8 | Cc1cccc(C)c1OCCCN(C)CCc1ccc(NS(C)(=O)=O)cc1 [Example 23, N-[4-[2-[N-Methyl-N-[3-(2,6-dimethylphenoxy)propyl]amino]-ethyl]phenyl]methanesulfonamide hydrochloride] |  |  |  |  |  |  |  |  |  |  |  |  |  | 10.8% | 25% | 14.9% | 25% | 
9 | Cc1cccc(C)c1OCCCCN(C)CCc1ccc(NS(C)(=O)=O)cc1.Cl [Example 24, N-[4-[2-[N-Methyl-N-[4-(2,6-dimethylphenoxy)butyl]amino]ethyl]phenyl]methanesulfonamide hydrochloride] | simultaneous prolongation of the effective refractory period (ERP) | significantly prolonged the time of impulse conduction in a frequency-dependent manner |  |  |  |  |  |  |  |  |  |  |  | 13.8% | 69% | 18.4% | 82.9% | 
10 | Cc1cccc(C)c1OCC(C)N(C)CCc1ccc(NC(=O)c2ccccc2)cc1 (centres unmarked) [Example 25, N-[4-[2-[N-Methyl-N-[2-(2,6-dimethylphenoxy)-1-methylethyl]amino]ethyl]phenyl]benzamide hydrochloride] |  |  |  |  |  |  |  |  |  |  |  |  |  | 11.7% | 18.8% | 17% | 18.8% | 
11 | CC(=O)Nc1ccc(CCN(C)C(C)COc2c(C)cccc2C)cc1 (centres unmarked) [Example 26, N-[4-[2-[N-Methyl-N-[2-(2,6-dimethylphenoxy)-1-methylethyl]amino]ethyl]phenyl]acetamide sesquihydrochloride monohydrate] |  |  | simultaneous prolongation of duration of the action potential (APD) | mexiletine-like inhibition of Vmax | 105 mV | 200 ms | 250 ms | -80 mV | 120.9 V/s | 0.62 | 195.9 V/s | 195 V/s | 199 ms |  |  |  |  | 
12 | CNC(=S)Nc1ccc(CCN(C)C(C)COc2c(C)cccc2C)cc1 (centres unmarked) [Example 27, 1-Methyl-3-[4-[2-[N-methyl-N-[2-(2,6-dimethylphenoxy)-1-methylethyl]amino]ethyl]phenyl]thiourea sesquihydrochloride hemihydrate] |  |  | simultaneous prolongation of duration of the action potential (APD) | mexiletine-like inhibition of Vmax | 88 mV | 210 ms | 250 ms | -71 mV | 78 V/s | 0.53 | 147.9 V/s | 117 V/s | 161.8 ms |  |  |  |  | 
